Data: article doi:10.1101/2025.08.06.668955, “High-Affinity, Structure-Validated and Selective Macrocyclic Peptide Tools for Chemical Biology Studies of Huntingtin” (bioRxiv, 2025)
Where a SMILES comes first, the peptide text is derived from it. Bridges are numbered along the chain shown (N, C = ends). Primed or numbered codes have the meaning given here. Where no end group is shown, it is not given here. [ ]: non-standard residue; d: D form. FITC′ = not defined here

Key:
[1] = tested on: endogenous HTT; assay: Macrocycle precipitation (MP) of endogenous HTT from HEK293T cell extracts; type: binding, human; conditions: HEK293 cell lysate, 2 mg protein, streptavidin beads conjugated at 1.25 μM macrocycle, 1 hour at 4°C
Procedure: To explore binding and selectivity within a more physiological context, we used biotinylated derivatives of macrocycles to affinity purify HTT from cellular extracts, which we term “macrocycle precipitations” (MPs)(Figure 5a). The macrocycles were joined to the biotin using either a 2 amino acid linker (AK-Bio) or a PEG11 spacer (PEG11-Bio) (Supplementary Figure 12a). Extracts were prepared from HEK293T cells, including HTT knock-out lines and streptavidin beads were used to attempt to capture macrocycle–HTT complexes, and potentially associated binding partners.
(§1) Macrocycles were pre-conjugated to streptavidin beads (Cytiva, 17-5113-01) by incubating with a 30 μL slurry of beads per macrocycle purification (MP) in Lysis Buffer (10 mM Tris-HCl, pH 7.9, 150 mM NaCl, 0.1% NP-40, 1:500 protease inhibitor cocktail (Sigma-Aldrich), 1:1,000 benzonase nuclease, and 2 mM MgCl2) for 1 hour at 4°C. A concentration of 1.25 μM macrocycle was used for conjugation. After incubation, beads were washed three times with 500 μL Lysis Buffer to remove unbound macrocycles and resuspended in 500 μL of lysate at 4 mg/mL protein concentration.
(§2) Cells were harvested by centrifugation at 1,500 rpm for 5 minutes, washed twice with PBS, and snap-frozen. Cell pellets were then resuspended in 500 μL of Lysis Buffer (as described above) and incubated on an end-over-end rotator at 4°C for 1 hour. Lysates were clarified by centrifugation at 20,000g for 15 minutes at 4°C, and the supernatant was transferred to fresh 1.5 mL Eppendorf tubes. Protein concentration was determined by BCA assay (Thermo Fisher Scientific, 23225), yielding approximately 4 mg of protein on average. Lysates were diluted to a final concentration of 4 mg/mL for use, providing […] of total protein per MP.
(§3) Macrocycle-conjugated beads were incubated with 2 mg of lysate in Lysis Buffer for 1 hour at 4°C with rotation. After incubation, beads were collected by centrifugation at 3,000 rpm, and the flow-through was saved for analysis. Beads were then washed sequentially with 1 mL of Wash Buffer 1 (10 mM Tris-HCl, pH 7.9, 100 mM NaCl, 0.1% NP-40) and twice with Wash Buffer 2 (Wash Buffer 1 without detergent). Lastly, bound proteins were eluted from the beads with 200 μL of 0.5 M NH4OH and flash-frozen in liquid nitrogen.
All sample preparation, LC MS/MS data collection, and MS data searches were carried out at the SPARC BioCentre at The Hospital for Sick Children (Toronto, ON, Canada). Samples were reduced with DTT (10 mM, 60°C, 1 hour), alkylated with iodoacetamide (20 mM, room temperature, 45 min, dark), and digested overnight at 37°C with trypsin ([…]; Pierce). Peptides were dried by vacuum centrifugation, desalted on C18 ziptips (Millipore) using a DigestPro MSi (Intavis Bioanalytical Instruments), and dried again by vacuum centrifugation before resuspension in Buffer A (0.1% formic acid (v/v) in water). Samples were analyzed by liquid chromatography tandem mass spectrometry (LC-MS/MS) using an EASY-nanoLC 1200 system with a 1 h analysis and an Orbitrap Fusion™ Lumos™ Tribrid™ Mass Spectrometer (Thermo Fisher Scientific). The LC portion of the analysis consisted of a 18 min linear gradient running 3–20% of Buffer A to Buffer B (0.1% formic acid (v/v) in […]), followed by a 31 min linear gradient running 20–35% of Buffer A to Buffer B, a 2 min ramp to 100% Buffer B and 9 min hold at 100% Buffer B, all at a flow rate of 250 nL/min. Samples were loaded into a […] × 2 cm Acclaim PepMap 100 Pre-column followed by a 75 μm × 50 cm PepMax RSLC EASY-Spray analytical column filled with […] C18 beads (Thermo Fisher Scientific). MS1 acquisition resolution was set to 120000 with an automatic gain control (AGC) target value of 4 × 105 and maximum ion injection time (IT) of 50 ms for a scan range of m/z 375–1500, with dynamic exclusion set to 10 s. Isolation for MS2 scans was performed in the quadrupole with an isolation window of m/z 0.7. […]

[2] = target: T1, HTTQ23-HAP40 (Homo sapiens, UniProt P23610+P42858, INS38QQ); assay: Thermal shift assay (DSF), HTTQ23-HAP40; type: binding; conditions: SYPRO Orange, 0.25 mg/mL protein, macrocycle up to 10 μM, 2.5% DMSO, n=3
T1 construct: Full-length wildtype HTT with a polyQ tract of 23 glutamines; FLAG; made in house; host or cells: Sf9 insect cells (baculovirus)
Procedure: In an Axygen® 384-well PCR microplate (REF# PCR-384-LC480-W-NF, Corning), samples were mixed to yield a final concentration of 0.25 mg/mL Q54 or Q23/HAP40, a 5-pt 2-fold serial dilution of each macrocycle (top concentration of 10 μM, 2.5% DMSO), and 5X SYPRO™ Orange (CAT# S6650, Thermo Fisher Scientific) in buffer (20 mM HEPES pH 7.4, 150 mM NaCl, 1 mM TCEP, 0.005% Tween-20). Differential Scanning Fluorimetry (DSF) was performed using a LightCycler® 480 (Roche LifeSciences) set to a 4 °C/min temperature ramp (20–95 °C) and fluorescence detection at 580 nm. Melting temperatures (Tm) were obtained from the minima of the negative derivative of each curve. The propagated error of the thermal shift (ΔTm) was calculated from the standard deviation of each Tm mean (n=3). To ensure a maximally macrocycle-bound fraction (KD ~10 nM; ~100% bound) at 0.25 mg/mL HTT or HTT-HAP40 (~0.7 μM), the upper limit of macrocycle tested was 10 μM.
98 Supplementary Figure. 10. Thermal shift (ΔTm) induced by macrocycle binding. Melting
99 temperature of HTTQ54 (left) with HL5 or HL2 minus HTTQ54 with DMSO (46.5 °C), and (right)
100 HTTQ23-HAP40 with HD4, HL2, HL5, HHD2, HHD3, or HHL1 minus HTTQ23-HAP40 with DMSO
101 (51.0 °C). ΔTm significance was determined using an unpaired t-test with Welch correction,
102 comparing to the mean Tm of Q54 or Q23-HAP40 with DMSO; *P < 0.05, **P < 0.01, ***P <
103 0.001. The summary table reports the ΔTm and exact P value at the highest concentration tested
(1 picture or pasted object on this page, not shown here)

[3] = tested on: HAP40; assay: Macrocycle precipitation (MP), co-purification of HAP40, LC-MS/MS; type: binding, human; conditions: HEK293T lysate versus HTT CRISPR knockout line
From the text: To assess macrocycle selectivity and identify potential HTT interacting proteins, we performed LC-MS/MS analysis of the proteins in the MP eluates. To control for non-specific binding, we performed MPs using lysates from a HTT CRISPR knockout cell line ([Jung et al., 2021]). Across all macrocycles, HTT emerged as the most enriched protein after background subtraction (Figure 5b). Given we performed affinity purification using macrocycles targeting distinct HTT surfaces, we hypothesized that any real HTT protein binder might be co-purified with two or more macrocycles. […] In contrast, HAP40 was not enriched by HL5, consistent with its specificity for apo HTT.
as §1, §2, §3
All sample preparation, LC MS/MS data collection, and MS data searches were carried out at the SPARC BioCentre at The Hospital for Sick Children (Toronto, ON, Canada). […] Samples were analyzed by liquid chromatography tandem mass spectrometry (LC-MS/MS) using an EASY-nanoLC 1200 system with a 1 h analysis and an Orbitrap Fusion™ Lumos™ Tribrid™ Mass Spectrometer (Thermo Fisher Scientific). […]

[4] = target: HTTQ54-HAP40 (UniProt P23610 1-371); assay: FP
[5] = target: C-terminally biotinylated HTTQ23 in complex with HAP40 (UniProt P23610 1-371, biotin on the C-terminal Avi-tag); assay: SPR

Sequence of HTTQ54-HAP40 (P42858 other isoform, or with tags, fused parts or gaps, chain 1 of 2): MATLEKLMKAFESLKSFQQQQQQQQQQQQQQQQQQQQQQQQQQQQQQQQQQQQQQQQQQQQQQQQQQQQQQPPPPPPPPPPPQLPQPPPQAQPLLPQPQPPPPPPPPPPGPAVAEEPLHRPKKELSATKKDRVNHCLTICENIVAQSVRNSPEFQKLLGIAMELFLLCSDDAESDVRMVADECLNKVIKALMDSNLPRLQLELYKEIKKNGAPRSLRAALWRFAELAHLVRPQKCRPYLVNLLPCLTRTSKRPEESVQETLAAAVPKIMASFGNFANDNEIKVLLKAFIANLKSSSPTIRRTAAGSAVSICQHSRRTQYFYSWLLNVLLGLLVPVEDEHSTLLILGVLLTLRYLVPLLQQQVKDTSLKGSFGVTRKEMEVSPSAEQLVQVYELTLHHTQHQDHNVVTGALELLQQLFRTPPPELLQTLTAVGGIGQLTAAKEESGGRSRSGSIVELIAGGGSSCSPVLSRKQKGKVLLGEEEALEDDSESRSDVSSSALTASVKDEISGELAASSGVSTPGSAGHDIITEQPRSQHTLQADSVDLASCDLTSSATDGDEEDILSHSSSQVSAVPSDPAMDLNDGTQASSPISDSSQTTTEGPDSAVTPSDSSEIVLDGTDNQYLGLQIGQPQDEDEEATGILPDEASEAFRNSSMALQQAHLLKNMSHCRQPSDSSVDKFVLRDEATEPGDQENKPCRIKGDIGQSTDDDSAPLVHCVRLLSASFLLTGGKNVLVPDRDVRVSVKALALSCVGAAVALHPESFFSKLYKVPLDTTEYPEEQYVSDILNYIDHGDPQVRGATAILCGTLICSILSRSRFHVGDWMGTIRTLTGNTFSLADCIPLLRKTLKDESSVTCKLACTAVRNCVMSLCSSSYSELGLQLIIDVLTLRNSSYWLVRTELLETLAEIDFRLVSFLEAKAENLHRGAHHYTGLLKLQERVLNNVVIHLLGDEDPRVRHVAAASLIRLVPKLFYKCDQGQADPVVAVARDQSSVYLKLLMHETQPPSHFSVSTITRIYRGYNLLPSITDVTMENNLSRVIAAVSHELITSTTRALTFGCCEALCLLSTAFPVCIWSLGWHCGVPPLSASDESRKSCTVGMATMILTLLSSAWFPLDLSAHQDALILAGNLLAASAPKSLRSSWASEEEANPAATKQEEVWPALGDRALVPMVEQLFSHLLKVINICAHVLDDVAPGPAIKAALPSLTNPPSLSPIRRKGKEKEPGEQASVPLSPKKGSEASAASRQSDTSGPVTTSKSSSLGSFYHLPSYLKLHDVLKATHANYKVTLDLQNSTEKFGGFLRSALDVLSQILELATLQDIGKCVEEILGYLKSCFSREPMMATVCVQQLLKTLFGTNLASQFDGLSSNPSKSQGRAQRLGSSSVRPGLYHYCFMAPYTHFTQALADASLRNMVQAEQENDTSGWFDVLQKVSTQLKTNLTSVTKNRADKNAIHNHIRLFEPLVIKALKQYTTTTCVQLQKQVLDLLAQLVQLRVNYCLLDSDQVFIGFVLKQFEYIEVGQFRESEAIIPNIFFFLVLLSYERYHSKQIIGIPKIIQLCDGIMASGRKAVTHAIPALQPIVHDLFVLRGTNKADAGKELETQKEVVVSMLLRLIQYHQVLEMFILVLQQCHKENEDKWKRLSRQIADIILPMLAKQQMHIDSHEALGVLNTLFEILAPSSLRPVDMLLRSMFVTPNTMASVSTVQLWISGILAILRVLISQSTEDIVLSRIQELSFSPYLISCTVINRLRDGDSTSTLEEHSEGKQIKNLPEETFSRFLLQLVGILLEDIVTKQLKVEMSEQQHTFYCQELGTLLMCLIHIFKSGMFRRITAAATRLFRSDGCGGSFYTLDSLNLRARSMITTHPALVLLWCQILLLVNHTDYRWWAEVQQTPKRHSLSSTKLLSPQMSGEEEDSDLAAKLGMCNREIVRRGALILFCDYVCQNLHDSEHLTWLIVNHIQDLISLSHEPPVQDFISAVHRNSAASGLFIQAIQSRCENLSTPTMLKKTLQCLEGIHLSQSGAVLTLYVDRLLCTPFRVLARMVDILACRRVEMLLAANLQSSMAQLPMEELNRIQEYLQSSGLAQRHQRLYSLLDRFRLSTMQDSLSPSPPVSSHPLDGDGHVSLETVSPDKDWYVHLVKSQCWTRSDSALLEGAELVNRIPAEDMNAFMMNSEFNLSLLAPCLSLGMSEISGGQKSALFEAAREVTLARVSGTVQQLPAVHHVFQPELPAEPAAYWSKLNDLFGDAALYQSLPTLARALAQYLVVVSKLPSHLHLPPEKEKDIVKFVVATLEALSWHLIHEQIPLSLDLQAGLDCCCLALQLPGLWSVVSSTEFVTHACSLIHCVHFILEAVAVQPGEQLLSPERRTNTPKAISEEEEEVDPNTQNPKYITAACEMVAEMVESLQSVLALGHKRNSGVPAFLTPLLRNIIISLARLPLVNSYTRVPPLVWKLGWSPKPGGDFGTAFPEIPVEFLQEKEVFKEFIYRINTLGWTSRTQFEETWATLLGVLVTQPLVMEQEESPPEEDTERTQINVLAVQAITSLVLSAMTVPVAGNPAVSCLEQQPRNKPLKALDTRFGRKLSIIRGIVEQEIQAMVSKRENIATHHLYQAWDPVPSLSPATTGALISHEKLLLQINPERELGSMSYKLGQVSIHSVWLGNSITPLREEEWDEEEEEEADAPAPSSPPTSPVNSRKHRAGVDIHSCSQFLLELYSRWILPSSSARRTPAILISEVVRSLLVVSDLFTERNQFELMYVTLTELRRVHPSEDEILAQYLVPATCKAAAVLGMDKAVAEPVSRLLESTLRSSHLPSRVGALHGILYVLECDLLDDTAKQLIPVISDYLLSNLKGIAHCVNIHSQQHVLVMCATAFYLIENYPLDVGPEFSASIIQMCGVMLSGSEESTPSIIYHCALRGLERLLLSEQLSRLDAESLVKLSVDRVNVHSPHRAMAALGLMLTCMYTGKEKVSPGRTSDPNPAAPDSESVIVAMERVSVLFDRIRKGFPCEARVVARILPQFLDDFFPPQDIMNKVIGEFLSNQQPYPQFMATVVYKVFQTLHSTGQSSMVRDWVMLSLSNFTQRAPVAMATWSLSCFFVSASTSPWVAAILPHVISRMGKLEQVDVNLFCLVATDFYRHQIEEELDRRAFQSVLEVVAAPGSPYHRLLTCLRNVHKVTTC
Sequence of HTTQ54-HAP40 (P23610 whole entry, chain 2 of 2): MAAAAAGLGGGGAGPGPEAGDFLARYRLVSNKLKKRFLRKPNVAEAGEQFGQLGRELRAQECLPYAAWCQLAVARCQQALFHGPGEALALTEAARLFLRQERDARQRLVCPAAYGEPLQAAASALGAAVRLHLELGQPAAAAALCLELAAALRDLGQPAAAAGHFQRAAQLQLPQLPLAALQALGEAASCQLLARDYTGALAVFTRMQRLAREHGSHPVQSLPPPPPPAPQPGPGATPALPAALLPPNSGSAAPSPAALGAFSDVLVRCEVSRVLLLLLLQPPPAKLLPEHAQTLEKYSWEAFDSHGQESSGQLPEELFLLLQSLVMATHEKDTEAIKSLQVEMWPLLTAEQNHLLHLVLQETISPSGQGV

Molecule	Capture of endogenous HTT by immobilized biotinylated macrocycle [1]	further results
HHL1-PEG11-Bio: biotinylated derivative of HHL1 with a PEG11 spacer ({CH2CO}-YLIRSSFNWFVFVEVPC; thioether N-17 (inferred); also: biotin joined via PEG11 spacer)	no detectable binding	–
HL2-PEG11-Bio: biotinylated derivative of HL2 with a PEG11 spacer ({CH2CO}-YTARYLTLGTLHYKC; thioether N-15 (inferred); also: biotin joined via PEG11 spacer)	captured	–
CC[C@H](C)[C@H](NC(=O)CNC(=O)[C@@H](NC(=O)[C@H](CCC(N)=O)NC(=O)[C@H](CCCCN)NC(=O)[C@H](CC(N)=O)NC(=O)[C@@H](NC(=O)[C@H](CCC(=O)O)NC(=O)[C@@H]1CSCC(=O)N[C@H](Cc2ccc(O)cc2)C(=O)N[C@@H](CC(=O)O)C(=O)N[C@@H]([C@@H](C)CC)C(=O)N[C@@H](Cc2c[nH]c3ccccc23)C(=O)N1)[C@@H](C)O)[C@@H](C)O)C(=O)N[C@@H](CC(C)C)C(=O)N[C@H](C(=O)N[C@@H](CC(C)C)C(=O)N[C@@H](CS)C(N)=O)C(C)C [HD4] ({CH2CO}-[dY]DIWCETNKQTGILVLC-NH2; thioether N-5)	–	Thermal shift (ΔTm) of HTTQ23-HAP40 induced by macrocycle [2]: No significant thermal effects; Enrichment of HAP40 in macrocycle pulldowns [3]: consistently enriched
HHL1-AK-Bio: biotinylated derivative of HHL1 with a 2 amino acid linker (AK-Bio) ({CH2CO}-YLIRSSFNWFVFVEVPCAK; thioether N-17 (inferred); also: biotin joined via 2 amino acid linker AK)	no detectable binding	–
HL5-PEG11-Bio: biotinylated derivative of HL5 with a PEG11 spacer ({CH2CO}-YTHFQVAPWIQSLC; thioether N-14 (inferred); also: biotin joined via PEG11 spacer)	captured	–
HD4-AK-Bio: biotinylated derivative of HD4 with a 2 amino acid linker (AK-Bio) (Ac-[dY]DIWCETNKQTGILVLCAK; thioether (positions not given here); also: thioether to downstream Cys, which of Cys5/Cys17 not given here, biotin joined via AK linker, site not given here)	captured	–
HHD3-AK-Bio: biotinylated derivative of HHD3 with a 2 amino acid linker (AK-Bio) ({CH2CO}-[dY]TRHWQNNWWILYHEFCAK; thioether N-17 (inferred); also: biotin joined via AK linker, site not given here)	captured	–
{CH2CO}-YLIRSSFNWFVFVEVPC-{FITC′} (thioether N-17 (inferred); not fully specified) [FITC-labeled HHL1]	–	Kd [4]: 2.6 nM
{CH2CO}-[dY]TRHWQNNWWILYHEFC-{FITC′} (thioether N-17 (inferred); not fully specified) [FITC-labeled HHD3]	–	Kd [4]: 2.6 nM
{CH2CO}-YTARYLTLGTLHYKC (thioether N-15 (inferred)) [HL2]	–	Kd [5]: 2 nM
{CH2CO}-YTARYLTLGTLHYKC-{FITC′} (thioether N-15 (inferred); not fully specified) [FITC-labeled HL2]	–	Kd [4]: 4 nM
